From patent US9763996B2, “Polymyxin derivative and uses thereof” (Northern Antibiotics Ltd., priority 2015, dated 2017)
≈ marks a conversion by molar mass, not a printed value. Like-named read-outs stand apart in the source and are kept apart here. Where a SMILES comes first, the peptide text is derived from it. Bridges are numbered along the chain shown (N, C = ends). [ ]: non-standard residue; d: D form. The star is where a group is joined. Octanoyl = CCCCCCCC(=O)*; Dab = NCC[C@H](N)C(=O)O; Abu = CC[C@H](N)C(=O)O

Assays:
P. aeruginosa = experiment: Synergy studies with rifampin; type: cell-based, Pseudomonas aeruginosa; conditions: against P. aeruginosa
Procedure: Synergy studies were performed by using polymyxin derivatives in combination with rifampin, a model compound for such antibacterial agents that the intact outer membrane of Gram-negative bacteria acts as a permeability barrier.

Escherichia coli C175-94 = experiment: Murine urinary tract infection efficacy; type: in vivo; conditions: for dose-response in the CFUs in the bladder and in the kidneys: 0.25-2 mg/kg/dose s.c. twice a day
Procedure: The study used 64 outbred, OF-1 female mice (Charles River, France) weighing 28-32 grams and Escherichia coli C175-94 (serotype O8:K48:H4), a clinical isolate elaborating type 1 fimbriae. The peptides were NAB815 (Lot 1054308) and polymyxin B (Sigma-Aldrich, batch BCBF8382V). The study was performed by Statens Serum Institut, Copenhagen, Denmark.
Three days before the start of the study and during the study, the mice had free access to 5% glucose in drinking water.
On day 0, the urine was removed from the bladder by gently pressing the abdomen. Thereafter, the mouse was anaesthetized with approximately 0.15 ml of Zoletil mix s.c. A syringe with polyethylene catheter (Becton Dickison) containing the bacterial suspension was inserted via the urethra into the bladder and 50 μl of the bacterial inoculum was slowly injected into the bladder. Thereafter, the mouse was left in the cage. Mice were kept in a warming cabinet and were under surveillance until fully awake.
After measuring the colony forming units (CFUs), the inoculum was determined to contain 9.38 log 10 CFU/ml, corresponding to 8.08 log 10 CFU/mouse.
On day 1 and day 2 postinfection, the mice were treated subcutaneously with solutions (0.2 ml) containing NAB815, polymyxin B or vehicle (0.9% NaCl) twice a day. The treatment groups (six mice in each) were the following: vehicle control; NAB815, 0.25 mg/kg/dose; NAB815, 0.5 mg/kg/dose; NAB815, 1 mg/kg/dose; NAB815, 2 mg/kg/dose; polymyxin B, 0.25 mg/kg/dose; polymyxin B, 0.5 mg/kg/dose; polymyxin B, 1 mg/kg/dose; and polymyxin B, 2 mg/kg/dose. In addition, one group served as a pretreatment control to help to assess as how the infection has proceeded before the start of the treatment on day 1 postinfection.
On days 1, 2 and 3 postinfection urine was sampled for colony counts. On day 1 postinfection (pretreatment control group) and on day 3 postinfection (all the other groups) after the urine sample was taken, mice were sacrificed by cervical dislocation and bladder and kidneys were removed aseptically. The bladder and kidneys were stored at −80° C. and later homogenized in 0.5 and 1 ml saline, respectively.
CFUs in urine were determined immediately within 2-3 hours after sampling. Frozen organs were thawed and homogenized with steel beads on a tissue lyser. All samples, urine, kidney and bladder, were 10 fold diluted in saline and 20-μl spots were applied on blood agar plates in duplicates. In addition, undiluted samples of urine (2-100 μl depending on the amount of urine) were spread on a separate agar plate to determine the lowest possible detection level of the colony counts. All agar plates were incubated 18-22 h at 35° C. in ambient air.

E. coli ATCC 25922 = conditions: E. coli ATCC 25922
E. coli JMI 109 = conditions: alone; E. coli JMI 109 (polymyxin-nonsusceptible)
P. aeruginosa ATCC 27853 = experiment: MIC assay (CLSI broth microdilution; checkerboard with rifampin); conditions: P. aeruginosa ATCC 27853
[1] = of all 24 mice treated at 0.25-2 mg/kg/dose
[2] = in combination with rifampin 0.25 μg/mL

| Molecule | synergistic activity with rifampin (P. aeruginosa) | CFU levels in urine, day 3 vs pretreatment control day 1 (Escherichia coli C175-94; 0.25 mg/kg/dose s.c. twice a day, OF-1 female mice) | CFU levels in urine, day 3 vs pretreatment control day 1 (Escherichia coli C175-94; 0.5 mg/kg/dose s.c. twice a day, OF-1 female mice) | CFU levels in urine, day 3 vs pretreatment control day 1 (Escherichia coli C175-94; 1 mg/kg/dose s.c. twice a day, OF-1 female mice, ** p<0.01) | CFU levels in urine, day 3 vs pretreatment control day 1 (Escherichia coli C175-94; 2 mg/kg/dose s.c. twice a day, OF-1 female mice, * p<0.05) | dose-response in the CFUs in the bladder and in the kidneys (Escherichia coli C175-94) | number of mice with bacterial levels below the detection limit in the kidneys (Escherichia coli C175-94; [1]) [mice] | number of mice with bacterial levels below the detection limit in the urine (Escherichia coli C175-94; [1]) [mice] | MIC (E. coli ATCC 25922; alone) [µg/mL] | MIC (E. coli ATCC 25922; [2]) [µg/mL] | MIC of rifampin in the presence of the peptide (E. coli ATCC 25922; peptide at 1 μg/mL) [µg/mL] | factor of decrease of the MIC of rifampin (E. coli ATCC 25922; peptide at 1 μg/mL) | CFU levels in urine, day 3 vs pretreatment control day 1 (Escherichia coli C175-94; any dose group (0.25, 0.5, 1, 2 mg/kg/dose) s.c. twice a day) | MIC (A. baumannii JMI 48125; alone) [µg/mL] | MIC (A. baumannii JMI 48125; [2]) [µg/mL] | MIC (E. coli JMI 109) [µg/mL] | MIC (P. aeruginosa ATCC 27853; alone) [µg/mL] | MIC (P. aeruginosa ATCC 27853; [2]) [µg/mL] |
| --- | --- | --- | --- | --- | --- | --- | --- | --- | --- | --- | --- | --- | --- | --- | --- | --- | --- | --- |
| CCCCCCCC(=O)N[C@@H](CCN)C(=O)N[C@H](C(=O)N[C@@H](C(=O)N[C@H]1CCNC(=O)[C@H]([C@@H](C)O)NC(=O)[C@H](CCN)NC(=O)[C@H](CC)NC(=O)[C@H](CC(C)C)NC(=O)[C@@H](Cc2ccccc2)NC(=O)[C@H](CCN)NC1=O)[C@H](C)O)[C@@H](C)O [NAB815, octanoyl-αDab-Thr-DThr-[cyclo-α,γDab-αDab-DPhe-Leu-Abu-αDab-Thr]] (Octanoyl-[Dab]T[dT][Dab][Dab][dF]L[Abu][Dab]T; lactam 4-C) | lacked any notable synergistic activity with rifampin | no significant differences | no significant differences | significant reduction of CFU levels in urine | significant reduction of CFU levels in urine | showed a tendency of a dose-response | 20 | 8 | 2 (≈ 1.7 µM) | 1 | 0.25 | 32 | – | – | – | – | – | – |
| Polymyxin B | – | – | – | – | – | did not show any dose-response tendency | – | 1 | 2 | 0.5 to 1 | – | – | no significant differences | 2 | 1 | 4 to 8 | 2 | 1 |
